Measurements from US20260102507A1, “CAMPTOTHECIN DERIVATIVE FOR TREATING OR PREVENTING CANCER AND ANTIBODY-DRUG CONJUGATE THEREOF” (CHENGDU BRILLIANT PHARMACEUTICAL CO., LTD., priority 2023, published 2026).

Columns and labels:
Type in all cases: cell-based
[1] = system: human colon cancer cell line HCT116; experiment: Cytotoxicity assay of camptothecin derivative toxins (Example A); settings: 3 days incubation, Cell Titer Turbo 2.0 luminescent cell viability
Method: (§1) Tumor cells (human ovarian cancer cell line SK-OV-3; human colon cancer cell line HCT116; human lung adenocarcinoma cell line A549) in logarithmic growth phase were digested and adjusted to a density of approximately 3×10^4 cells/mL. The cells were plated on a white-walled 96-well plate at approximately 100 μL/well. The camptothecin derivative toxins of the Examples of the present application were serially diluted with the corresponding cell culture medium, and then mixed with the cells for incubation at 37° C. in a 5% CO2 incubator for 3 days. The growth inhibitory effect of the camptothecin derivative toxins on tumor cells was assessed by the Cell Titer Turbo 2.0 Luminescent Cell Viability Assay (Damas life, RA-GL11). Relative light unit (RLU) values were read from the cell culture plate using a microplate reader. Experimental data were analyzed using GraphPad Prism 8.0 software to calculate IC50 values. The above experiment was repeated using the following compounds as positive controls: […]

[2] = system: human lung adenocarcinoma cell line A549; experiment: as above; settings: 3 days incubation, Cell Titer Turbo 2.0 luminescent cell viability
Method: as §1

[3] = system: human ovarian cancer cell line SK-OV-3; experiment: as above; settings: for IC50: 3 days incubation, Cell Titer Turbo 2.0 luminescent cell viability; for tumor cell killing activity: in words, overall statement on Table 2 tumor cells, compared with SN-38 and Dxd
Method: as §1

[4] = system: human lung adenocarcinoma cell line NCI-H441; experiment: Cytotoxicity assay of camptothecin derivative toxins (Example A'); settings: Homo sapiens, NCI-H441, 72 h; Example A'; 3 days incubation; read-out: IC50 (nM) NCI-H441
Method: (§2) The camptothecin derivatives of the Examples of the present application were serially diluted with DMSO and the corresponding cell culture medium, and were added into a white-walled 96-well plate. Tumor cells (human ovarian cancer cell line SK-OV-3; human colon cancer cell line HCT116; human lung adenocarcinoma cell line A549; human lung adenocarcinoma cell line NCI-H441; human oral epidermoid carcinoma cell line KB) in logarithmic growth phase were digested and adjusted to a density of approximately 3.33×10^4 cells/mL. The cells were plated at 90 µL/well on the white-walled 96-well plate that was pre-loaded with the samples, followed by incubation at 37° C. in a 5% CO2 incubator for 3 days. The growth inhibitory effect of the small molecule compounds on tumor cells was evaluated by the Cell Titer Turbo 2.0 Luminescent Cell Viability Assay (Damas life, RA-GL11). Relative light unit (RLU) values were read from the cell culture plates using a microplate reader. Experimental data were analyzed with GraphPad Prism 8.0 software to calculate IC50 values.

[5] = system: human ovarian cancer cell line SK-OV-3; experiment: as above; settings: Homo sapiens, SK-OV-3, 72 h; Example A'; 3 days incubation; read-out: IC50 (nM) SK-OV-3
Method: as §2

For `CC[C@@]1(O)C(=O)OCc2c1cc1n(c2=O)Cc2c-1nc1cc(F)c(C)c3c1c2[C@@H](NC(=O)CO)CC3` [DXD, Dxd, reference compound], the IC50 [1] was 49.3 nM, the IC50 [2] was 413 nM and the IC50 [3] was 41.4 nM.

`CCc1c2c(nc3ccc(O)cc13)-c1cc3c(c(=O)n1C2)COC(=O)[C@]3(O)CC` [SN-38, reference compound] gave an IC50 ([1]; Homo sapiens, HCT-116, 72 h) of 60.5 nM, an IC50 ([2]; Homo sapiens, A549, 72 h) of 523 nM and an IC50 ([3]; Homo sapiens, SK-OV-3, 72 h) of 30.9 nM.

`CC[C@@]1(O)C(=O)OCc2c1cc1n(c2=O)Cc2c-1nc1cc(F)c(C)cc1c2CNCC1CCCC1` [STI-A2, (S)-4-ethyl-4-hydroxy-8-fluoro-9-methyl-11-(((cyclopentylmethyl)amino)methyl)-1,12-dihydro-14H-pyrano[3′,4′:6,7]indolizino[1,2-b]quinoline-3,14(4H)-dione] was tested, and the IC50 ([1]; Homo sapiens, HCT-116, 72 h) was 52.5 nM, the IC50 ([2]; Homo sapiens, A549, 72 h) was 107 nM and the IC50 ([3]; Homo sapiens, SK-OV-3, 72 h) was 30.8 nM. For the same compound, the “tumor cell killing activity” value [3] was “comparable to that of SN-38 and Dxd”.

Work on `CC[C@@]1(O)C(=O)OCc2c1cc1n(c2=O)Cc2c-1nc1cc(F)c(C)cc1c2CNCC(C)(C)C` [STI-A, (S)-4-ethyl-4-hydroxy-8-fluoro-9-methyl-11-((neopentylamino)methyl)-1,12-dihydro-14H-pyrano[3′,4′:6,7]indolizino[1,2-b]quinoline-3,14(4H)-dione] yielded an IC50 ([1]; Homo sapiens, HCT-116, 72 h) of 39.9 nM, an IC50 ([2]; Homo sapiens, A549, 72 h) of 115 nM and an IC50 ([3]; Homo sapiens, SK-OV-3, 72 h) of 29.3 nM. For the same compound, the “tumor cell killing activity” value [3] was “comparable to that of SN-38 and Dxd”.

Work on `CC[C@@]1(O)C(=O)OCc2c1cc1n(c2=O)Cc2c-1nc1cc(F)c(C)cc1c2CCl` [STI-A-4, (S)-4-ethyl-4-hydroxy-8-fluoro-9-methyl-11-(chloromethyl)-1,12-dihydro-14H-pyrano[3′,4′:6,7]indolizino[1,2-b]quinoline-3,14(4H)-dione] yielded an IC50 ([1]; Homo sapiens, HCT-116, 72 h) of 222 nM, an IC50 ([2]; Homo sapiens, A549, 72 h) of 757 nM and an IC50 ([3]; Homo sapiens, SK-OV-3, 72 h) of 71.8 nM.

`CC[C@@]1(O)C(=O)OCc2c1cc1n(c2=O)Cc2c-1nc1cc3c(cc1c2CCCCO)OCO3` [STI-E, (S)-7-ethyl-7-hydroxy-14-(4-hydroxybutyl)-10,13-dihydro-11H-[1,3]dioxolo[4,5-g]pyrano[3′,4′:6,7]indolizino[1,2-b]quinoline-8,11(7H)-dione] gave an IC50 ([1]; Homo sapiens, HCT-116, 72 h) of 1740 nM, an IC50 ([2]; Homo sapiens, A549, 72 h) of 1060 nM and an IC50 ([3]; Homo sapiens, SK-OV-3, 72 h) of 403 nM.

Compound `CC[C@@]1(O)C(=O)OCc2c1cc1n(c2=O)Cc2cc3cc4c(cc3nc2-1)OCO4` [STI-E-05, (S)-7-ethyl-7-hydroxy-10,13-dihydro-11H-[1,3]dioxolo[4,5-g]pyrano[3′,4′:6,7]indolizino[1,2-b]quinoline-8,11(7H)-dione] has an IC50 ([1]; Homo sapiens, HCT-116, 72 h) of 32.9 nM, an IC50 ([2]; Homo sapiens, A549, 72 h) of 70.3 nM and an IC50 ([3]; Homo sapiens, SK-OV-3, 72 h) of 12.7 nM. For the same compound, the “tumor cell killing activity” value [3] was “comparable to that of SN-38 and Dxd”.

For `CC[C@@]1(O)C(=O)OCc2c1cc1n(c2=O)Cc2c-1nc1cc(F)c(C)cc1c2NC(=O)CO` [STI-F2, (S)—N-(4-ethyl-4-hydroxy-8-fluoro-9-methyl-3,14-dioxo-3,4,12,14-tetrahydro-1H-pyrano[3′,4′:6,7]indolizino[1,2-b]quinolin-11-yl)-2-hydroxyacetamide], the IC50 ([1]; Homo sapiens, HCT-116, 72 h) was 945 nM, the IC50 ([2]; Homo sapiens, A549, 72 h) was 2370 nM and the IC50 ([3]; Homo sapiens, SK-OV-3, 72 h) was 317 nM.

For `CC[C@@]1(O)C(=O)OCc2c1cc1n(c2=O)Cc2c-1nc1cc(F)c(C)cc1c2NCCCCO` [STI-F6, (S)-4-ethyl-8-fluoro-4-hydroxy-9-methyl-11-((4-hydroxybutyl)amino)-1,12-dihydro-14H-pyrano[3′,4′:6,7]indolizino[1,2-b]quinoline-3,14(4H)-dione], the IC50 ([3]; Homo sapiens, SK-OV-3, 72 h) was 2.65 nM and the “tumor cell killing activity” value [3] was “significantly superior to that of SN-38 and Dxd”.

Work on `CC[C@@]1(O)C(=O)OCc2c1cc1n(c2=O)Cc2c-1nc1cc(F)c(C)cc1c2NCCCCN` [STI-F7, (S)-11-((4-aminobutyl)amino)-4-ethyl-8-fluoro-4-hydroxy-9-methyl-1,12-dihydro-14H-pyrano[3′,4′:6,7]indolizino[1,2-b]quinoline-3,14(4H)-dione] yielded an IC50 ([3]; Homo sapiens, SK-OV-3, 72 h) of 285 nM.

In the case of `CCCCCNc1c2c(nc3cc(F)c(C)cc13)-c1cc3c(c(=O)n1C2)COC(=O)[C@]3(O)CC` [STI-F13, (S)-4-ethyl-8-fluoro-4-hydroxy-9-methyl-11-(pentylamino)-1,12-dihydro-14H-pyrano[3′,4′:6,7]indolizino[1,2-b]quinoline-3,14(4H)-dione], the IC50 ([3]; Homo sapiens, SK-OV-3, 72 h) was 2.37 nM.

In the case of `CC[C@@]1(O)C(=O)OCc2c1cc1n(c2=O)Cc2c-1nc1cc(F)c(C)cc1c2NC(=O)C(O)C1CC1` (stereo partly drawn) [STI-F, 2-cyclopropyl-N—((S)-4-ethyl-8-fluoro-4-hydroxy-9-methyl-3,14-dioxo-3,4,12,14-tetrahydro-1H-pyrano[3′,4′:6,7]indolizino[1,2-b]quinolin-11-yl)-2-hydroxyacetamide], the IC50 ([3]; Homo sapiens, SK-OV-3, 72 h) was 45.5 nM and the “tumor cell killing activity” value [3] was “comparable to that of SN-38 and Dxd”.

Work on `CC[C@@]1(O)C(=O)OCc2c1cc1n(c2=O)Cc2c-1nc1cc(F)c(C)cc1c2C(=O)O` [STI-F-01, (S)-4-ethyl-8-fluoro-4-hydroxy-9-methyl-3,14-dioxo-3,4,12,14-tetrahydro-1H-pyrano[3′,4′:6,7]indolizino[1,2-b]quinoline-11-carboxylic acid] yielded an IC50 ([1]; Homo sapiens, HCT-116, 72 h) of 322 nM, an IC50 ([2]; Homo sapiens, A549, 72 h) of 1050 nM and an IC50 ([3]; Homo sapiens, SK-OV-3, 72 h) of 131 nM.

`CC[C@@]1(O)C(=O)OCc2c1cc1n(c2=O)Cc2c-1nc1cc(F)c(C)cc1c2N` [STI-F-03C-1, (S)-4-ethyl-4-hydroxy-8-fluoro-9-methyl-11-amino-1,12-dihydro-14H-pyrano[3′,4′:6,7]indolizino[1,2-b]quinoline-3,14(4H)-dione] showed an IC50 ([1]; Homo sapiens, HCT-116, 72 h) of 38.2 nM, an IC50 ([2]; Homo sapiens, A549, 72 h) of 1080 nM and an IC50 ([3]; Homo sapiens, SK-OV-3, 72 h) of 19.9 nM. The “tumor cell killing activity” value [3] was “comparable to that of SN-38 and Dxd”.

`CC[C@@]1(O)C(=O)OCc2c1cc1n(c2=O)Cc2cc3cc(C)c(F)cc3nc2-1` [STI-F-8, (S)-4-ethyl-4-hydroxy-8-fluoro-9-methyl-1,12-dihydro-14H-pyrano[3′,4′:6,7]indolizino[1,2-b]quinoline-3,14(4H)-dione] showed an IC50 ([1]; Homo sapiens, HCT-116, 72 h) of 26.6 nM, an IC50 ([2]; Homo sapiens, A549, 72 h) of 52.8 nM and an IC50 ([3]; Homo sapiens, SK-OV-3, 72 h) of 12.4 nM. The “tumor cell killing activity” value [3] was “comparable to that of SN-38 and Dxd”.

`CCCCCNc1c2c(nc3cc(F)c(C)cc13)-c1cc3c(c(=O)n1C2)COC(=O)[C@]3(O)CC` [STI-F-13] was tested, and the “tumor cell killing activity” value [3] was “significantly superior to that of SN-38 and Dxd”.

Work on `CCCCCc1c2c(nc3cc(F)c(N)cc13)-c1cc3c(c(=O)n1C2)COC(=O)[C@]3(O)CC` [STI-G1, (S)-4-ethyl-4-hydroxy-8-fluoro-9-amino-11-pentyl-1,12-dihydro-14H-pyrano[3′,4′:6,7]indolizino[1,2-b]quinoline-3,14(4H)-dione] yielded an IC50 ([1]; Homo sapiens, HCT-116, 72 h) of 11 nM, an IC50 ([2]; Homo sapiens, A549, 72 h) of 9.52 nM and an IC50 ([3]; Homo sapiens, SK-OV-3, 72 h) of 3.7 nM. For the same compound, the “tumor cell killing activity” value [3] was “significantly superior to that of SN-38 and Dxd”.

Compound `CCCSCc1c2c(nc3cc(F)c(N)cc13)-c1cc3c(c(=O)n1C2)COC(=O)[C@]3(O)CC` [STI-G2, (S)-9-amino-4-ethyl-8-fluoro-4-hydroxy-11-((propylthio)methyl)-1,12-dihydro-14H-pyrano[3′,4′:6,7]indolizino[1,2-b]quinoline-3,14(4H)-dione] has an IC50 ([1]; Homo sapiens, HCT-116, 72 h) of 11 nM, an IC50 ([2]; Homo sapiens, A549, 72 h) of 14.9 nM and an IC50 ([3]; Homo sapiens, SK-OV-3, 72 h) of 2.19 nM. The “tumor cell killing activity” value [3] was “significantly superior to that of SN-38 and Dxd”.

In the case of `CCCSCc1c2c(nc3cc(F)c(Br)cc13)-c1cc3c(c(=O)n1C2)COC(=O)[C@]3(O)CC` [STI-G2-06C, (S)-9-bromo-4-ethyl-8-fluoro-4-hydroxy-11-((propylthio)methyl)-1,12-dihydro-14H-pyrano[3′,4′:6,7]indolizino[1,2-b]quinoline-3,14(4H)-dione], the IC50 ([1]; Homo sapiens, HCT-116, 72 h) was 81.3 nM, the IC50 ([2]; Homo sapiens, A549, 72 h) was 216 nM and the IC50 ([3]; Homo sapiens, SK-OV-3, 72 h) was 57.8 nM. For the same compound, the “tumor cell killing activity” value [3] was “comparable to that of SN-38 and Dxd”.

Compound `CCCCCc1c2c(nc3cc(F)c([N+](=O)[O-])cc13)-c1cc3c(c(=O)n1C2)COC(=O)[C@]3(O)CC` [STI-G03, (S)-4-ethyl-4-hydroxy-8-fluoro-9-nitro-11-pentyl-1,12-dihydro-14H-pyrano[3′,4′:6,7]indolizino[1,2-b]quinoline-3,14(4H)-dione] has an IC50 ([1]; Homo sapiens, HCT-116, 72 h) of 268 nM, an IC50 ([2]; Homo sapiens, A549, 72 h) of 322 nM and an IC50 ([3]; Homo sapiens, SK-OV-3, 72 h) of 137 nM.

In the case of `CCCCCc1c2c(nc3cc(F)c(NC(=O)CO)cc13)-c1cc3c(c(=O)n1C2)COC(=O)[C@]3(O)CC` [STI-G5, (S)—N-(4-ethyl-8-fluoro-4-hydroxy-3,14-dioxo-11-pentyl-3,4,12,14-tetrahydro-1H-pyrano[3′,4′:6,7]indolizino[1,2-b]quinolin-9-yl)-2-hydroxyacetamide], the IC50 [4] was 2.22 nM and the IC50 [5] was 10.3 nM.
